# In US20070167492A1, “Molluscicidal agents” (priority 2003, published 2007):
# Entries after “also recorded” stand apart in the source; their conditions may differ.
# Columns and labels:
# Type in all cases: in vivo
# [1] = tested on: Deroceras reticulatum (grey field slug); assay: Example 2: pot re-test, treated winter wheat seed with 5 adult slugs per pot, 7 days
# From the text: Based on the results of the experiment described in Example 1, a selection was made from the various test numbers of that experiment for re-testing, partly to confirm the conclusions of that experiment and to test the unexpected outcome of some test compounds.
# The selection of test numbers (Test No.) used in the present experiment relative to those of the experiment described in Example 1 is shown in Table 7.
# The same seeds as described in Example 1 were sown in earthenware pots with an internal diameter of 20 cm and a height of 18 cm, filled with 7 cm of potting soil (Trio BV, Weesp, The Netherlands) and with a top 2 cm of white quartz sand. A total of 40 winter wheat seeds was placed in each pot, in a pattern of concentric circles on top of the quartz sand, the germ of the seed facing upwards. To each pot a total of 5 adult specimens of the test slug Deroceras reticulatum (grey field slug) were added. The pots were incubated at 18-19° C. with a relative humidity of ±95% and light regime of ±18 hours light/6 hours dark, without artificial lighting. The pots were not irrigated overhead. In total, 4 parallel tests were performed for each test.
# The number of damaged seeds was, the number of plants present (germinated and not eaten or damaged by the slugs), the number of dead slugs and of the number of fecal pellets were determined after 2, 3 and 7 days following the addition of the slugs.
# The data were statistically analysed by using F-tests (α=0.05) and pair-wise Student-tests.
# [2] = tested on: Winter wheat (Kampa race) seeds; assay: Seed germination test of treated winter wheat seeds (rolled in paper); conditions: 3x50 seeds, 6 days at 22° C.
# In short: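 Seeds were disinfected with fludioxonil-containing Beret Gold (2 ml per kg seed) and coated with Sepiret® for formulations unsuitable for coating. Germination of 3×50 seeds rolled in paper was scored after 6 days at continuous 22° C. under a 16 hours light regime.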
# [3] = tested on: Deroceras reticulatum (grey field slug); assay: Example 1: pot test, treated winter wheat seed with 5 adult slugs per pot, 14 days
# In short: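 Fludioxonil-disinfected winter wheat seed (Kampa, 40 per pot) sown on quartz sand over potting soil with 5 adult slugs per pot; ±15° C., ±90% RH, 12 h light/12 h dark, 4 replicates. Damaged seeds, plants, dead slugs and fecal pellets counted up to day 14; F-tests and Student-tests.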
# [4] = tested on: Grey field slug (Deroceras reticulatum); assay: Example 3:  trial oilseed rape, treated seed, 5 slugs per plot; conditions: doses of 10.4 and 20.8 ml per kg seed
# From the text: The compounds and doses used are described in table 12.
# Trial Data Cultivaton • Location: Glasshouse • Plots consist of: One earthenware pot, diameter 20 cm, height 18 cm • Trial medium: 7 cm of peat based potting compost, covered with silversand • Cultivar: Talent (00) • Thousand seed weight: 7.0 g • Seed treatments: Carried out on 12 Mar. 2004. The fungicide treatment was 4 g a.i. TMTD per kg seed • Sowing date: 9 Apr. 2004 • Number of seeds per pot: 40 • Experimental layout: Randomised block design • Number of replicates: 4 (I to IV), Annex 1 • Temperature during cultivation: 16 hours 20° C., 8 hours 15° C. Trial • Location: Laboratory • Starting date: 20 Apr. 2004 • Slug species: Grey field slug (Deroceras reticulatum). The slugs were collected from the field and only healthy individuals were used. • Number of slugs per plot: 5 • Temperature during trial: ±18° C. • Relative humidity during trial: ±90% Assessment
# After starting the trial, assessments were made on 21, 23 and 26 April. At each assessment, the total numbers of plants, the numbers of attacked plants, the numbers of dead slugs and the numbers of fecal pellets were counted. […] In addition, the numbers of normal plants were counted on 23 and 26 April and the fresh aboveground plant weight per plot was assessed on 27 April. […]
# Data were analysed using analysis of variance and Student's t-distribution with the PPAIR procedure.
# [5] = Example 2, 2 ml formulated per kg seed, 2 days after sowing
# [6] = Example 2, 2 ml formulated per kg seed, 3 days after sowing
# [7] = Example 2, 2 ml formulated per kg seed, 7 days after sowing
# [8] = Example 2, after 2, 3 and 7 days
# [9] = 2 ml formulated per kg seed, 2 days after sowing
# [10] = 2 ml formulated per kg seed, 3 days after sowing
# [11] = 2 ml formulated per kg seed, 7 days after sowing
# [12] = 2 ml formulated per kg seed, 10 days after sowing
# [13] = 2 ml formulated per kg seed, 14 days after sowing
# [14] = 10 ml formulated per kg seed, 2 days after sowing
# [15] = 10 ml formulated per kg seed, 3 days after sowing
# [16] = 10 ml formulated per kg seed, 7 days after sowing
# [17] = 10 ml formulated per kg seed, 10 days after sowing
# [18] = 10 ml formulated per kg seed, 14 days after sowing
smiles,measurement,setting,value
"N#CN=C1SCCN1Cc1ccc(Cl)nc1 [thiacloprid, N-[3-(6-chloropyridin-3-ylmethyl)thiazolidin-2-ylidene]cyanamide]",result of seed treatment against slugs (conclusion),[1]; Example 2,good results
same,percentage of damaged seeds after 7 days,"[1]; Example 2, 2 ml formulated per kg seed",14%
same,Mean number of damaged seeds per pot,[1]; [5],3.5
same,Mean number of dead slugs per pot,[1]; [5],0
same,Mean number of damaged seeds per pot,[1]; [6],4.5
same,Mean number of dead slugs per pot,[1]; [6],0
same,Mean number of damaged seeds per pot,[1]; [7],5.8
same,Mean number of dead slugs per pot,[1]; [7],0.3
same,number of fecal pellets per pot relative to the untreated control,[1]; [8],significant reduction in the number of fecal pellets
same,plants present relative to the untreated seed,[1]; [8],significantly more plants present
same,number of damaged seeds relative to the untreated seed,"[1]; Example 2, two days after the start",significant reduction in the number of damaged seeds
same,Mean number of fecal pellets per pot,"[1]; dosage 2 ml, 2 days",8
same,Mean number of plants present per pot,"[1]; dosage 2 ml, 2 days",12.5
same,Mean number of fecal pellets per pot,"[1]; dosage 2 ml, 3 days",14
same,Mean number of plants present per pot,"[1]; dosage 2 ml, 3 days",24.0
same,Mean number of fecal pellets per pot,"[1]; dosage 2 ml, 7 days",17
same,Mean number of plants present per pot,"[1]; dosage 2 ml, 7 days",29.5
same,number of utilizable plants after 7 days,"[1]; dosage 2 ml, 7 days",23.5
same,Percentage germinated,[2]; 2 ml formulated per kg seed,73%
same,Percentage germinated,[2]; 10 ml formulated per kg seed,58%
same,number of utilizable plants after 14 days,[3]; 2 ml formulated per kg seed,28.8
same,percentage of damaged seeds after 14 days,[3]; 2 ml formulated per kg seed,13%
same,Mean number of damaged seeds per pot,[3]; [9],1.3
same,Mean number of dead slugs per pot,[3]; [9],0
same,Mean number fecal pellets per pot,[3]; [10],14
same,Mean number of damaged seeds per pot,[3]; [10],3.3
same,Mean number of dead slugs per pot,[3]; [10],0.3
same,Mean number of plants present per pot,[3]; [10],6.3
same,Mean number fecal pellets per pot,[3]; [11],23
same,Mean number of damaged seeds per pot,[3]; [11],7.5
same,Mean number of dead slugs per pot,[3]; [11],0.5
same,Mean number of plants present per pot,[3]; [11],27.8
same,Mean number fecal pellets per pot,[3]; [12],17
same,Mean number of damaged seeds per pot,[3]; [12],5.5
same,Mean number of dead slugs per pot,[3]; [12],0.5
same,Mean number of plants present per pot,[3]; [12],28.5
same,Mean number fecal pellets per pot,[3]; [13],21
same,Mean number of damaged seeds per pot,[3]; [13],5.3
same,Mean number of dead slugs per pot,[3]; [13],0.8
same,Mean number of plants present per pot,[3]; [13],29.3
same,number of utilizable plants after 14 days,[3]; 10 ml formulated per kg seed,34.5
same,percentage of damaged seeds after 14 days,[3]; 10 ml formulated per kg seed,8%
same,Mean number of damaged seeds per pot,[3]; [14],0.5
same,Mean number of dead slugs per pot,[3]; [14],0
same,Mean number fecal pellets per pot,[3]; [15],5
same,Mean number of damaged seeds per pot,[3]; [15],1.5
same,Mean number of dead slugs per pot,[3]; [15],0
same,Mean number of plants present per pot,[3]; [15],10.5
same,Mean number fecal pellets per pot,[3]; [16],8
same,Mean number of damaged seeds per pot,[3]; [16],3.3
same,Mean number of dead slugs per pot,[3]; [16],0
same,Mean number of plants present per pot,[3]; [16],32.8
same,Mean number fecal pellets per pot,[3]; [17],7
same,Mean number of damaged seeds per pot,[3]; [17],3.3
same,Mean number of dead slugs per pot,[3]; [17],0.3
same,Mean number of plants present per pot,[3]; [17],34.0
same,Mean number fecal pellets per pot,[3]; [18],9
same,Mean number of damaged seeds per pot,[3]; [18],3.3
same,Mean number of dead slugs per pot,[3]; [18],0.3
same,Mean number of plants present per pot,[3]; [18],34.8
same,damaged seeds relative to untreated control seed,"[3]; Example 1, 2 or 10 ml per kg of seed, at each observation (after 2 days only 10 ml)",less damaged seeds than the untreated control seed
same,protection of the wheat against slugs (conclusion),"[3]; Example 1, already at a low dose of 2 ml",good protection of the wheat against slugs
same,fecal pellets relative to the untreated seed,"[3]; Example 1, at each dosage and at each observation",large and significant reduction in the number of fecal pellets; also recorded: significantly less fecal pellets
same,plants present and utilizable plants relative to the untreated seed,"[3]; Example 1, both 2 and 10 ml per kg of seed, after 7 days",significantly more plants present and utilizable plants
same,"comparison with imidacloprid (fecal pellets, damaged seeds, plants present, utilizable plants)","[3]; Example 1, two weeks after the start",scored surprisingly better than the related compound imidacloprid
same,damage (conclusion),[4],decreases the damage
